{
  "source": "patent US10793557B2",
  "about": "“Sting agonist compounds” (Merck Sharp & Dohme Corp., priority 2018, dated 2020)",
  "key": {"full-length WT STING": {"molecular_target": "T1, full-length WT STING (Homo sapiens, UniProt Q86WV6, H232R)", "T1 construct": "AviTag (after gg linker) (C); HRV3C cleavage site (after gs linker) (C); HIS8 (C); made in house; host or cells: Trichoplusia ni (Hi-Five) insect cells infected with baculovirus (virus generated and amplified in Sf21 cells); used as a washed membrane preparation", "T1 sequence (Q86WV6 with tags, fused parts or gaps H232R)": "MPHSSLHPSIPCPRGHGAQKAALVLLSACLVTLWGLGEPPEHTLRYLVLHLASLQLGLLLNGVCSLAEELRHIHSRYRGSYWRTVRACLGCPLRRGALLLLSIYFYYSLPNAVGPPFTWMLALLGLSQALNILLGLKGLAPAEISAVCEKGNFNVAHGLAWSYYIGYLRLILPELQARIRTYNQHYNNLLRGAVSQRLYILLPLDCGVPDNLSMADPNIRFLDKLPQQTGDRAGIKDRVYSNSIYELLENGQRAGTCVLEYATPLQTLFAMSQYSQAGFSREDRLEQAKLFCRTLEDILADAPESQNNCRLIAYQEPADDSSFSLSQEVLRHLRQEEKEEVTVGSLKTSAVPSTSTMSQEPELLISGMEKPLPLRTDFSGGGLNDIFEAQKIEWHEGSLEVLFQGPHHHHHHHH", "experiment": "3H-cGAMP filtration binding assay (WT STING)", "settings": "for EC50: competition with tritiated cGAMP, WT STING membrane", "outline": "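EC50 values come from 4-parameter fits of remaining filter-bound tritium versus log concentration (10-point, 1:3 dilution). Insect-cell membranes carrying full-length WT STING were incubated 60 min at RT with compound and tritiated cGAMP (16 nM working stock) before filtration.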"}, "[1]": {"system": "secretion of interferon-beta from THP1 cells", "experiment": "IFN-β secretion in THP1 cell culture (5 h)", "type": "cell-based", "settings": "Homo sapiens, THP-1, 5 h, 30 uM cGAMP = 100%; for activation at 30 µM: compound at 30 μM, read-out: % Effect at 30 μM relative to 2′3′-cGAMP", "outline": "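IFN-β in supernatant measured by AlphaLISA after a 5 h, 37 °C incubation of THP1 cells with compound (10 concentrations, 30000 down to 1.5 nM, 0.3% DMSO) in low-serum RPMI. Values scaled between DMSO and 30 uM cGAMP controls; 4-parameter curve fit yields EC50.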"}, "full-length HAQ STING": {"molecular_target": "T2, full-length HAQ STING (Homo sapiens, UniProt Q86WV6, G230A/H232R/R293Q/R71H)", "T2 construct": "AviTag (after GG linker) (C); HRV3C cleavage site (after GS linker) (C); HIS8 (C); made in house; host or cells: Trichoplusia ni (Hi-Five) insect cells infected with baculovirus (virus generated and amplified in Sf21 cells); used as a washed membrane preparation", "T2 sequence (Q86WV6 with tags, fused parts or gaps R71H/G230A/H232R/R293Q)": "as the sequence (Q86WV6 with tags, fused parts or gaps H232R) above, with R71H, G230A, R293Q counted along it", "experiment": "3H-cGAMP filtration binding assay (HAQ STING)", "settings": "competition with tritiated cGAMP, HAQ STING membrane", "outline": "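Hi-Five (T. ni) membranes overexpressing the STING variant (2.2 ug/ml working) preincubated with compound 60 min at RT in PBS, then [3H]cGAMP (8 nM working stock) added for 60 min at RT. Bound radioactivity captured on GF/B filters and counted by scintillation; EC50 from 4-parameter fit of control-normalized activity.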"}},
  "data": [
    {"compound": "COc1cc2sc(C(=O)C[C@H](C)C(=O)O)cc2nc1OCCCc1c(OC)cc2sc(C(=O)C[C@H](C)C(=O)O)cc2c1F", "note": "[Example 159, (S)-4-(5-(3-(2-((S)-3-carboxybutanoyl)-4-fluoro-6-methoxybenzo[b]thiophen-5-yl)propoxy)-6-methoxythieno[3,2-b]pyridin-2-yl)-2-methyl-4-oxobutanoic acid]", "values": [
      {"measurement": "EC50", "setting": "full-length WT STING", "result": 3, "unit": "nM"},
      {"measurement": "activation at 30 µM", "setting": "[1]", "result": 99, "unit": "%"},
      {"measurement": "EC50", "setting": "full-length HAQ STING", "result": 3, "unit": "nM"}
    ]},
    {"compound": "COc1cc2cc(C(=O)C[C@H](C)C(=O)O)sc2cc1OCCCc1nc2c(o1)c(OC)cc1sc(C(=O)C[C@H](C)C(=O)O)cc12", "note": "[Example 40, (S)-4-(6-(3-(7-((S)-3-carboxybutanoyl)-4-methoxythieno[2′,3′:5,6]benzo[1,2-d]oxazol-2-yl)propoxy)-5-methoxybenzo [b]thiophen-2-yl)-2-methyl-4-oxobutanoic acid]", "values": [
      {"measurement": "EC50", "setting": "full-length WT STING", "result": 1360, "unit": "nM"},
      {"measurement": "activation at 30 µM", "setting": "[1]", "result": 27, "unit": "%"},
      {"measurement": "EC50", "setting": "full-length HAQ STING", "result": 86, "unit": "nM"}
    ]},
    {"compound": "COc1cc2sc(C(=O)C[C@H](C)C(=O)O)cc2c(Cl)c1OCCCOc1c(OC)cc2sc(C(=O)C[C@H](C)C(=O)O)cc2c1Br", "note": "[Example 133, (S)-4-(5-(3-((4-bromo-2-((S)-3-carboxybutanoyl)-6-methoxybenzo[b]thiophen-5-yl)oxy)propoxy)-4-chloro-6-methoxybenzo[b]thiophen-2-yl)-2-methyl-4-oxobutanoic acid]", "values": [
      {"measurement": "EC50", "setting": "full-length WT STING", "result": 147, "unit": "nM"},
      {"measurement": "activation at 30 µM", "setting": "[1]", "result": 80, "unit": "%"},
      {"measurement": "EC50", "setting": "full-length HAQ STING", "result": 15, "unit": "nM"}
    ]},
    {"compound": "COc1cc2sc(C(=O)C[C@H](C)C(=O)O)cc2cc1OCCOc1ccc2sc(C(=O)CCC(=O)O)cc2c1", "note": "[Example 54, (S)-4-(5-(2-((2-(3-carboxypropanoyl)benzo[b]thiophen-5-yl)oxy)ethoxy)-6-methoxybenzo[b]thiophen-2-yl)-2-methyl-4-oxobutanoic acid]", "values": [
      {"measurement": "EC50", "setting": "full-length WT STING", "result": 3080, "unit": "nM"},
      {"measurement": "activation at 30 µM", "setting": "[1]", "result": 9, "unit": "%"},
      {"measurement": "EC50", "setting": "full-length HAQ STING", "result": 804, "unit": "nM"}
    ]},
    {"compound": "COc1cc2sc(C(=O)CCC(=O)O)cc2nc1CCCOc1c(OC)cc2sc(C(=O)C[C@H](C)C(=O)O)cc2c1F", "note": "[Example 174, (S)-4-(5-(3-(2-(3-carboxypropanoyl)-6-methoxythieno[3,2-b]pyridin-5-yl)propoxy)-4-fluoro-6-methoxybenzo[b]thiophen-2-yl)-2-methyl-4-oxobutanoic acid]", "values": [
      {"measurement": "EC50", "setting": "full-length WT STING", "result": 1, "unit": "nM"},
      {"measurement": "activation at 30 µM", "setting": "[1]", "result": 88, "unit": "%"},
      {"measurement": "EC50", "setting": "full-length HAQ STING", "result": 1, "unit": "nM"}
    ]},
    {"compound": "COc1cc2sc(C(=O)C[C@H](C)C(=O)O)cc2c(F)c1OC(C)CCC(C)Oc1c(OC)cc2sc(C(=O)C[C@H](C)C(=O)O)cc2c1F", "note": "(stereo partly drawn) [Example 140, (2S,2′S)-4,4′-((hexane-2,5-diylbis(oxy))bis(4-fluoro-6-methoxybenzo[b]thiophene-5,2-diyl))bis(2-methyl-4-oxobutanoic acid)]", "values": [
      {"measurement": "inhibition at 7 µM", "setting": "full-length WT STING; at 7,000 nM compound", "result": 28, "unit": "%"},
      {"measurement": "activation at 3 µM", "setting": "[1]; compound at 3 uM, read-out: % Effect relative to 2′3′-cGAMP (@ 3 uM)", "result": 31, "unit": "%"},
      {"measurement": "EC50", "setting": "full-length HAQ STING", "result": 2150, "unit": "nM"}
    ]},
    {"compound": "COc1cc2sc(C(=O)CCC(=O)O)cc2cc1OCCc1nc2cc(C(=O)CCC(=O)O)sc2cc1OC", "note": "[Example 7, 4-(5-(2-((2-(3-carboxypropanoyl)-6-methoxybenzo [b]thiophen-5-yl)oxy)ethyl)-6-methoxythieno[3,2-b]pyridin-2-yl)-4-oxobutanoic acid]", "values": [
      {"measurement": "EC50", "setting": "full-length WT STING", "result": 71, "unit": "nM"},
      {"measurement": "activation at 30 µM", "setting": "[1]", "result": 97, "unit": "%"},
      {"measurement": "EC50", "setting": "full-length HAQ STING", "result": 17, "unit": "nM"}
    ]},
    {"compound": "COc1cc2sc(C(=O)C[C@H](C)C(=O)O)cc2c(F)c1OCCCOc1c(OC)cc2sc(C(=O)C[C@H](C)C(=O)O)cc2c1Cl", "note": "[Example 122, (S)-4-(5-(3-((2-((S)-3-carboxybutanoyl)-4-chloro-6-methoxybenzo[b]thiophen-5-yl)oxy)propoxy)-4-fluoro-6-methoxybenzo[b]thiophen-2-yl)-2-methyl-4-oxobutanoic acid]", "values": [
      {"measurement": "EC50", "setting": "full-length WT STING", "result": 1, "unit": "nM"},
      {"measurement": "activation at 30 µM", "setting": "[1]", "result": 79, "unit": "%"},
      {"measurement": "EC50", "setting": "full-length HAQ STING", "result": 1, "unit": "nM"}
    ]},
    {"compound": "COc1cc2sc(C(=O)C[C@H](C)C(=O)O)cc2c(F)c1CCCOc1c(OC)cc2sc(C(=O)C[C@H](C)C(=O)O)cc2c1F", "note": "[Example 164, (S)-4-(5-(3-((2-((S)-3-carboxybutanoyl)-4-fluoro-6-methoxybenzo[b]thiophen-5-yl)oxy)propyl)-4-fluoro-6-methoxybenzo[b]thiophen-2-yl)-2-methyl-4-oxobutanoic acid]", "values": [
      {"measurement": "EC50", "setting": "full-length WT STING", "result": 1, "unit": "nM"},
      {"measurement": "activation at 30 µM", "setting": "[1]", "result": 131, "unit": "%"},
      {"measurement": "EC50", "setting": "full-length HAQ STING", "result": 1, "unit": "nM"}
    ]}
  ]
}
